This passage reports IC50 results from patent US9499530B2 (HANGZHOU MINSHENG INSTITUTES FOR PHARMA RESEARCH, priority 2011, dated 2016).

The structures appear in SMILES notation. A value given as a limit tells only on which side of the number the result lay.

For assay [1], the target named is EGFR (Epidermal Growth Factor Receptor 1) (Homo sapiens, UniProt P00533). In words: ELISA protein tyrosine kinase inhibition, EGFR. As to conditions: ELISA, Poly(Glu, Tyr) 4:1 substrate, ATP 5 μM, test samples at 10-5 mol/l; read-out: EGFR inhibitory activity (IC50 class). Type of assay: biochemical. From the text:
(§1) Determining the Effect of Test Samples at a Concentration of 10-5 Mol/l on the Activity of the Substrate Phosphoryation Catalyzed by EGFR (Epidermal Growth Factor Receptor 1), ErbB-2 (Epidermal Growth Factor Receptor 2), ErbB-4, KDR (Vascular Endothelial Growth Factor Receptor 2) Protein Tyrosine Kinases at Molecular Level
(§2) Enzyme-Linked Immunosorbent Assay (ELISA)
(§3) Main instrument: wavelength-tunable microplate reader (VERSAmax).
(§4) Main reagents: kinase reaction substrate Poly(Glu, Tyr) 4:1 from Sigma; anti-phosphotyrosine monoclonal antibody PY99 from Santa Cruz; horseradish peroxidase-labeled goat anti-mouse IgG from Calbiochem; ATP, DTT, OPD from Amresco, and ELISA plate from Corning.
(§5) Poly(Glu, Tyr)4:1 as an enzyme substrate was diluted by potassium ion-free PBS into 20 μg/ml, and an ELISA plate was coated and subjected to reaction for 12-16 h at 37° C. After the liquid in wells was removed, the plate was washed three time by T-PBS, 5 min for each time. The ELISA plate was then dried in an oven at 37° C. The coated wells were added with the test samples: the test samples were prepared for a stock solution with a concentration of 1×10^−2M in DMSO. The aliquot solution was stored at −20° C., and diluted to the desired concentration with reaction buffer before use. The resulting solution was added into the wells so that the final concentration of 10-5 mol/l in 100 μL reaction system can be obtained. At the same time, a positive control well was set up and a positive control compound Su11248 was added. ATP and test tyrosine kinases were added: ATP solution diluted with reaction buffer was added (the final concentration of ATP is 5 μM). Finally, the test tyrosine kinases solution diluted with reaction buffer was added. The total volume of the reaction system was […]. Meanwhile, a negative control well and a control well without enzyme were set up. The reaction system was placed in a wet box, and shaked for 1 hour at 37° C., shielding from light. After the reaction was complete, the plate was washed by T-PBS three times. Antibody PY99 was added at 100 μL/well; and the plate was shaked for 30 min at 37° C. After the reaction was complete, the plate was washed with T-PBS three times. Horseradish peroxidase-labeled goat anti-mouse IgG was added at 100 μL/well, and the plate was shaked for 30 min at 37° C. The plate was washed with T-PBS three times. OPD developing liquid was added at 100 μL/well, and reacted for 1-10 min at room temperature, shielding from light. 50 μL of 2 M H2SO4 was added to stop the reaction. A492 value was determined using wavelength-tunable microplate reader. The inhibition ratio of the samples can be calculated by the following equation: […]
For orientation: In an ELISA, binding on a coated surface is turned into a signal by an enzyme label.

In assay [2] the target is ErbB-2 (Epidermal Growth Factor Receptor 2) (Homo sapiens, UniProt P04626). The assay can be described thus: ELISA protein tyrosine kinase inhibition, ErbB-2. Type of assay: biochemical. As to conditions: Poly(Glu, Tyr) 4:1 substrate, ATP 5 μM, test samples at 10-5 mol/l, read-out: ErbB2 inhibitory activity (IC50 class).
From the text: as §1, §2, §3, §4, §5

A word on the IC50: it is the concentration that gives 50% inhibition.

EGFR (Epidermal Growth Factor Receptor 1), sequence (P00533 25-1210): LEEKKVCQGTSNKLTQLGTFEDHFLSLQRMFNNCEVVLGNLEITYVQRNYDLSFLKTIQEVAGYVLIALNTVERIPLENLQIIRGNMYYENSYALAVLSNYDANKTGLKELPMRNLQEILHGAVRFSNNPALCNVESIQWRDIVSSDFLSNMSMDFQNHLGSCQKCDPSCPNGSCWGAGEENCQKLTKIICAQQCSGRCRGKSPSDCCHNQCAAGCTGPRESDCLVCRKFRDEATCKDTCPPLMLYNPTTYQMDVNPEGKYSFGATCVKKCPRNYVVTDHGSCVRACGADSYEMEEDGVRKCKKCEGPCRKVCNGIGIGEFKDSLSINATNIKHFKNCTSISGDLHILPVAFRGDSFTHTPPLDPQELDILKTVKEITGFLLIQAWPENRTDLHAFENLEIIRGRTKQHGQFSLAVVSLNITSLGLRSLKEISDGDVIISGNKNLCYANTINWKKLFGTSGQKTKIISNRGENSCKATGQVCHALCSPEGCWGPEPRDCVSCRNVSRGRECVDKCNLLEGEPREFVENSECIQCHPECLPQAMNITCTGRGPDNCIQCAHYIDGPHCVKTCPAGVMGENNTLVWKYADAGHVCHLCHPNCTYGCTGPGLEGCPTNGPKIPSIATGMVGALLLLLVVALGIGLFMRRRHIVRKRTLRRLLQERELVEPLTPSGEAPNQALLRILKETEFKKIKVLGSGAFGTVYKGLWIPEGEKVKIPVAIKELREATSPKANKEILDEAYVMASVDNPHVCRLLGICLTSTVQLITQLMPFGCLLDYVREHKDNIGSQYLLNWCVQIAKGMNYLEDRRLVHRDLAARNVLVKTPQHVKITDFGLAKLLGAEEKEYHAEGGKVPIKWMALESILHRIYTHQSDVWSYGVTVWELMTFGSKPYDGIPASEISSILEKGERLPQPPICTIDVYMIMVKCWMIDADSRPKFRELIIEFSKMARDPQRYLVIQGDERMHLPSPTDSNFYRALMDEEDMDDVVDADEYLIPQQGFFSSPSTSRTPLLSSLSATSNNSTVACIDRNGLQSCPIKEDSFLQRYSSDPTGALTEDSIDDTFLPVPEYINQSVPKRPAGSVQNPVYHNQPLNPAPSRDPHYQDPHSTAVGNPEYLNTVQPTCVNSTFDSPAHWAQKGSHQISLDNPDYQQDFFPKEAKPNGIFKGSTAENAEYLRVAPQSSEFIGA
ErbB-2 (Epidermal Growth Factor Receptor 2), sequence (P04626 23-1255): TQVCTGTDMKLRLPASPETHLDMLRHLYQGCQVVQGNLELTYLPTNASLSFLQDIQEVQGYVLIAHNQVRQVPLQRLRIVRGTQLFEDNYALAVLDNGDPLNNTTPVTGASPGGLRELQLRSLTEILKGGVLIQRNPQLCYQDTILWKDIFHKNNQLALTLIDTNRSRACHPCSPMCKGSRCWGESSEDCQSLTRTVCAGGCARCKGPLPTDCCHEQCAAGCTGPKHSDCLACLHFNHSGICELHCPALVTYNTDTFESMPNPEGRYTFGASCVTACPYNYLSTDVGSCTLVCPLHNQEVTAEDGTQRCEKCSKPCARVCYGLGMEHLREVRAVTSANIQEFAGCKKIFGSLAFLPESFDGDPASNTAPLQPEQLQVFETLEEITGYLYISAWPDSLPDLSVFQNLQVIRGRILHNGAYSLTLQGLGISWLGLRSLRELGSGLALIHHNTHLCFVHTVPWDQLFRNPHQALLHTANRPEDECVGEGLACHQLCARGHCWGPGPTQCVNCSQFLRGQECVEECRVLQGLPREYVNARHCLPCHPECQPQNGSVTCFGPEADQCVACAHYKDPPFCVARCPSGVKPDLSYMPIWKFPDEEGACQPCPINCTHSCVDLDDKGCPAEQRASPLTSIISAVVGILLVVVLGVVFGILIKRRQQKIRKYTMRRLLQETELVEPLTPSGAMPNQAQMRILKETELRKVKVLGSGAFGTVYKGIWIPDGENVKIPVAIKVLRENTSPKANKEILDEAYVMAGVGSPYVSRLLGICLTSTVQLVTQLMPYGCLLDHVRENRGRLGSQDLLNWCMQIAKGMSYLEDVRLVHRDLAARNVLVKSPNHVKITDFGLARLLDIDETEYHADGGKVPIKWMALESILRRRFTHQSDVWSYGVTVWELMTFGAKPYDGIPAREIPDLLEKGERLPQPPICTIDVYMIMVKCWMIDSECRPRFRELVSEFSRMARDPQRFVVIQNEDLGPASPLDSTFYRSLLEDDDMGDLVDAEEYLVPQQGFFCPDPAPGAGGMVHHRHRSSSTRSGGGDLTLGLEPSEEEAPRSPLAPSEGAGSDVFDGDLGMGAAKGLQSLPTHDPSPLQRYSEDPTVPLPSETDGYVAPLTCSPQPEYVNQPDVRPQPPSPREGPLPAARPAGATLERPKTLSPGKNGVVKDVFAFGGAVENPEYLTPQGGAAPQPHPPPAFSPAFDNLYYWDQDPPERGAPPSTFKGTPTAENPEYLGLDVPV

For `COCCCCNCc1ccc(-c2ccc3ncnc(Nc4ccc(OCc5cccc(F)c5)c(Cl)c4)c3c2)o1` [MS10·dimethanesulfonate, N-(3-chloro-4-((3-fluorobenzyl)oxy)phenyl)-6-(5-(((4-methoxybutyl)amino)methyl)-2-furyl)-4-quinazolinamine], the IC50 in assay [1] and in assay [2] was less than 10 µM throughout.

In the case of `CCCCCCNCc1ccc(-c2ccc3ncnc(Nc4ccc(OCc5cccc(F)c5)c(Cl)c4)c3c2)o1` [MS 2, N-(3-chloro-4-((3-fluorobenzyl)oxy)phenyl)-6-(5-((n-hexylamino)methyl)-2-furyl)-4-quinazolinamine], the IC50 in assay [1] is less than 10 µM; in assay [2], greater than 10 µM.

For the compound `CCNCc1ccc(-c2ccc3ncnc(Nc4ccc(OCc5cccc(F)c5)c(Cl)c4)c3c2)o1` [MS 3, N-(3-chloro-4-((3-fluorobenzyl)oxy)phenyl)-6-(5-((ethylamino)methyl)-2-furyl)-4-quinazolinamine], the IC50 in assay [1] and in assay [2] was less than 10 µM throughout.

In the case of `CCN(CC)Cc1ccc(-c2ccc3ncnc(Nc4ccc(OCc5cccc(F)c5)c(Cl)c4)c3c2)o1` [MS 4], the IC50 in assay [1] and in assay [2] was less than 10 µM in each case.

On to `Fc1cccc(COc2ccc(Nc3ncnc4ccc(-c5ccc(CNCc6cccc(Cl)c6)o5)cc34)cc2Cl)c1` [MS 11, N-(3-chloro-4-((3-fluorobenzyl)oxy)phenyl)-6-(5-(((3-chlorobenzyl)amino)methyl)-2-furyl)-4-quinazolinamine], for which the figures for the IC50 in assay [1] and in assay [2] were less than 10 µM and greater than 10 µM, respectively.

Turning to `O=[N+]([O-])c1ccc(CCNCc2ccc(-c3ccc4ncnc(Nc5ccc(OCc6cccc(F)c6)c(Cl)c5)c4c3)o2)cc1` [MS 12, N-(3-chloro-4-((3-fluorobenzyl)oxy)phenyl)-6-(5-(((2-(4-nitrophenyl)ethyl)amino)methyl)-2-furyl)-4-quinazolinamine], the concentration for half-maximal inhibition (IC50) in assay [1] and in assay [2] was less than 10 µM throughout.

On to `Oc1ccc(CCNCc2ccc(-c3ccc4ncnc(Nc5ccc(OCc6cccc(F)c6)c(Cl)c5)c4c3)o2)cc1` [MS 13, N-(3-chloro-4-((3-fluorobenzyl)oxy)phenyl)-6-(5-(((2-(4-hydroxyphenyl)ethyl)amino)methyl)-2-furyl)-4-quinazolinamine], for which the IC50 in assay [1] and in assay [2] was less than 10 µM in each case.

As for `COc1cc(CCNCc2ccc(-c3ccc4ncnc(Nc5ccc(OCc6cccc(F)c6)c(Cl)c5)c4c3)o2)cc(OC)c1` [MS 14], the IC50 in assay [1] and in assay [2] was less than 10 µM each time.

For `Oc1cc(F)cc(CCNCc2ccc(-c3ccc4ncnc(Nc5ccc(OCc6cccc(F)c6)c(Cl)c5)c4c3)o2)c1` [MS 15, N-(3-chloro-4-((3-fluorobenzyl)oxy)phenyl)-6-(5-(((2-(3-hydroxy-5-fluorophenyl)ethyl)amino)methyl)-2-furyl)-4-quinazolinamine], the IC50 in assay [1] and in assay [2] was less than 10 µM each time.

Turning to `Fc1cc(Cl)cc(CCNCc2ccc(-c3ccc4ncnc(Nc5ccc(OCc6cccc(F)c6)c(Cl)c5)c4c3)o2)c1` [MS 16, N-(3-chloro-4-((3-fluorobenzyl)oxy)phenyl)-6-(5-(((2-(3-chloro-5-fluorophenyl)ethyl)amino)methyl)-2-furyl)-4-quinazolinamine], the IC50 in assay [1] is less than 10 µM; in assay [2], greater than 10 µM.

Consider `OCCCCC(O)CNCc1ccc(-c2ccc3ncnc(Nc4ccc(OCc5cccc(F)c5)c(Cl)c4)c3c2)o1` (centres unmarked) [MS 17, N-(3-chloro-4-((3-fluorobenzyl)oxy)phenyl)-6-(5-(((2,6-dihydroxyhexyl)amino)methyl)-2-furyl)-4-quinazolinamine], for which the IC50 in assay [1] and in assay [2] was less than 10 µM throughout.

Take `Fc1cccc(COc2ccc(Nc3ncnc4ccc(-c5ccc(CNOCc6ccccc6)o5)cc34)cc2Cl)c1` [MS 19, N-(3-chloro-4-((3-fluorobenzyl)oxy)phenyl)-6-(5-(((benzyloxy)amino)methyl)-2-furyl)-4-quinazolinamine]: the IC50 in assay [1] and in assay [2] was less than 10 µM each time.

For the compound `NC1CCCC(NCc2ccc(-c3ccc4ncnc(Nc5ccc(OCc6cccc(F)c6)c(Cl)c5)c4c3)o2)C1` (centres unmarked) [MS 21, N-(3-chloro-4-((3-fluorobenzyl)oxy)phenyl)-6-(5-(((3-aminocyclohexyl)amino)methyl)-2-furyl)-4-quinazolinamine], the IC50 in assay [1] and in assay [2] was less than 10 µM each time.

For `O=C(O)CNCc1ccc(-c2ccc3ncnc(Nc4ccc(OCc5cccc(F)c5)c(Cl)c4)c3c2)o1` [MS 22, N-(3-chloro-4-((3-fluorobenzyl)oxy)phenyl)-6-(5-(((carboxymethyl)amino)methyl)-2-furyl)-4-quinazolinamine], the half-maximal inhibitory concentration (IC50) in assay [1] and in assay [2] was less than 10 µM each time.

Turning to `O=C(O)C(Cc1ccccc1)NCc1ccc(-c2ccc3ncnc(Nc4ccc(OCc5cccc(F)c5)c(Cl)c4)c3c2)o1` (centres unmarked) [MS 24, N-(3-chloro-4-((3-fluorobenzyl)oxy)phenyl)-6-(5-((((1-carboxy-2-phenyl)ethyl)amino)methyl)-2-furyl)-4-quinazolinamine], the IC50 in assay [1] and in assay [2] was less than 10 µM in each case.

Consider `O=C(O)C(CO)NCc1ccc(-c2ccc3ncnc(Nc4ccc(OCc5cccc(F)c5)c(Cl)c4)c3c2)o1` (centres unmarked) [MS 28, N-(3-chloro-4-((3-fluorobenzyl)oxy)phenyl)-6-(5-((((1-carboxy-2-hydroxy)ethyl)amino)methyl)-2-furyl)-4-quinazolinamine], for which the IC50 in assay [1] and in assay [2] was less than 10 µM each time.

For `O=C(O)C(CS)NCc1ccc(-c2ccc3ncnc(Nc4ccc(OCc5cccc(F)c5)c(Cl)c4)c3c2)o1` (centres unmarked) [MS 29], the IC50 in assay [1] and in assay [2] was less than 10 µM throughout.

In the case of `NC(=O)CC(NCc1ccc(-c2ccc3ncnc(Nc4ccc(OCc5cccc(F)c5)c(Cl)c4)c3c2)o1)C(=O)O` (centres unmarked) [MS 30, N-(3-chloro-4-((3-fluorobenzyl)oxy)phenyl)-6-(5-((((1-carboxy-2-aminoformyl)ethyl)amino)methyl)-2-furyl)-4-quinazolinamine], the IC50 in assay [1] and in assay [2] was less than 10 µM in each case.

For the compound `NC(CCCNCc1ccc(-c2ccc3ncnc(Nc4ccc(OCc5cccc(F)c5)c(Cl)c4)c3c2)o1)C(=O)O` (centres unmarked) [MS 32, N-(3-chloro-4-((3-fluorobenzyl)oxy)phenyl)-6-(5-((((4-carboxy-4-amino)butyl)amino)methyl)-2-furyl)-4-quinazolinamine], the IC50 in assay [1] and in assay [2] was less than 10 µM throughout.

Turning to `NC(CCCNCc1ccc(-c2ccc3ncnc(Nc4ccc(F)c(Cl)c4)c3c2)o1)C(=O)O` (centres unmarked) [MS 37, N-(3-chloro-4-fluorophenyl)-6-(5-((((4-carboxy-4-amino)butyl)amino)methyl)-2-furyl)-4-quinazolinamine], in assay [2], the IC50 is less than 10 µM.

On to `NCCCC(NCc1ccc(-c2ccc3ncnc(Nc4ccc(F)c(Cl)c4)c3c2)o1)C(=O)O` (centres unmarked) [MS 38, N-(3-chloro-4-fluorophenyl)-6-(5-((((1-carboxy-4-amino)butyl)amino)methyl)-2-furyl)-4-quinazolinamine], for which the IC50 in assay [2] was less than 10 µM.

With `O=[N+]([O-])c1ccc(CCNCc2ccc(-c3ccc4ncnc(Nc5ccc(F)c(Cl)c5)c4c3)o2)cc1` [MS 40, N-(3-chloro-4-fluorophenyl)-6-(5-(((2-(4-nitrophenyl)ethyl)amino)methyl)-2-furyl)-4-quinazolinamine], the IC50 in assay [2] was less than 10 µM.
